Reference: PMC3429506, “Screening for Novel LRRK2 Inhibitors Using a High-Throughput TR-FRET Cellular Assay for LRRK2 Ser935 Phosphorylation” (PLoS ONE, 2012)

What was measured:
GFP-LRRK2 G2019S = biological target: T1, GFP-LRRK2 G2019S (Homo sapiens, UniProt Q5S007, G2019S); test: Immunoprecipitation/Western analysis of LRRK2 phosphorylation at Ser910, Ser935, Ser955, Ser973 in HEK293 T-REx GFP-LRRK2 G2019S cells; format: cell-based; settings: 20 µM, 90 min, HEK293 GFP-LRRK2 G2019S, Figure 6
T1 construct: expressed in transfected cells
T1 sequence (Q5S007 whole entry G2019S): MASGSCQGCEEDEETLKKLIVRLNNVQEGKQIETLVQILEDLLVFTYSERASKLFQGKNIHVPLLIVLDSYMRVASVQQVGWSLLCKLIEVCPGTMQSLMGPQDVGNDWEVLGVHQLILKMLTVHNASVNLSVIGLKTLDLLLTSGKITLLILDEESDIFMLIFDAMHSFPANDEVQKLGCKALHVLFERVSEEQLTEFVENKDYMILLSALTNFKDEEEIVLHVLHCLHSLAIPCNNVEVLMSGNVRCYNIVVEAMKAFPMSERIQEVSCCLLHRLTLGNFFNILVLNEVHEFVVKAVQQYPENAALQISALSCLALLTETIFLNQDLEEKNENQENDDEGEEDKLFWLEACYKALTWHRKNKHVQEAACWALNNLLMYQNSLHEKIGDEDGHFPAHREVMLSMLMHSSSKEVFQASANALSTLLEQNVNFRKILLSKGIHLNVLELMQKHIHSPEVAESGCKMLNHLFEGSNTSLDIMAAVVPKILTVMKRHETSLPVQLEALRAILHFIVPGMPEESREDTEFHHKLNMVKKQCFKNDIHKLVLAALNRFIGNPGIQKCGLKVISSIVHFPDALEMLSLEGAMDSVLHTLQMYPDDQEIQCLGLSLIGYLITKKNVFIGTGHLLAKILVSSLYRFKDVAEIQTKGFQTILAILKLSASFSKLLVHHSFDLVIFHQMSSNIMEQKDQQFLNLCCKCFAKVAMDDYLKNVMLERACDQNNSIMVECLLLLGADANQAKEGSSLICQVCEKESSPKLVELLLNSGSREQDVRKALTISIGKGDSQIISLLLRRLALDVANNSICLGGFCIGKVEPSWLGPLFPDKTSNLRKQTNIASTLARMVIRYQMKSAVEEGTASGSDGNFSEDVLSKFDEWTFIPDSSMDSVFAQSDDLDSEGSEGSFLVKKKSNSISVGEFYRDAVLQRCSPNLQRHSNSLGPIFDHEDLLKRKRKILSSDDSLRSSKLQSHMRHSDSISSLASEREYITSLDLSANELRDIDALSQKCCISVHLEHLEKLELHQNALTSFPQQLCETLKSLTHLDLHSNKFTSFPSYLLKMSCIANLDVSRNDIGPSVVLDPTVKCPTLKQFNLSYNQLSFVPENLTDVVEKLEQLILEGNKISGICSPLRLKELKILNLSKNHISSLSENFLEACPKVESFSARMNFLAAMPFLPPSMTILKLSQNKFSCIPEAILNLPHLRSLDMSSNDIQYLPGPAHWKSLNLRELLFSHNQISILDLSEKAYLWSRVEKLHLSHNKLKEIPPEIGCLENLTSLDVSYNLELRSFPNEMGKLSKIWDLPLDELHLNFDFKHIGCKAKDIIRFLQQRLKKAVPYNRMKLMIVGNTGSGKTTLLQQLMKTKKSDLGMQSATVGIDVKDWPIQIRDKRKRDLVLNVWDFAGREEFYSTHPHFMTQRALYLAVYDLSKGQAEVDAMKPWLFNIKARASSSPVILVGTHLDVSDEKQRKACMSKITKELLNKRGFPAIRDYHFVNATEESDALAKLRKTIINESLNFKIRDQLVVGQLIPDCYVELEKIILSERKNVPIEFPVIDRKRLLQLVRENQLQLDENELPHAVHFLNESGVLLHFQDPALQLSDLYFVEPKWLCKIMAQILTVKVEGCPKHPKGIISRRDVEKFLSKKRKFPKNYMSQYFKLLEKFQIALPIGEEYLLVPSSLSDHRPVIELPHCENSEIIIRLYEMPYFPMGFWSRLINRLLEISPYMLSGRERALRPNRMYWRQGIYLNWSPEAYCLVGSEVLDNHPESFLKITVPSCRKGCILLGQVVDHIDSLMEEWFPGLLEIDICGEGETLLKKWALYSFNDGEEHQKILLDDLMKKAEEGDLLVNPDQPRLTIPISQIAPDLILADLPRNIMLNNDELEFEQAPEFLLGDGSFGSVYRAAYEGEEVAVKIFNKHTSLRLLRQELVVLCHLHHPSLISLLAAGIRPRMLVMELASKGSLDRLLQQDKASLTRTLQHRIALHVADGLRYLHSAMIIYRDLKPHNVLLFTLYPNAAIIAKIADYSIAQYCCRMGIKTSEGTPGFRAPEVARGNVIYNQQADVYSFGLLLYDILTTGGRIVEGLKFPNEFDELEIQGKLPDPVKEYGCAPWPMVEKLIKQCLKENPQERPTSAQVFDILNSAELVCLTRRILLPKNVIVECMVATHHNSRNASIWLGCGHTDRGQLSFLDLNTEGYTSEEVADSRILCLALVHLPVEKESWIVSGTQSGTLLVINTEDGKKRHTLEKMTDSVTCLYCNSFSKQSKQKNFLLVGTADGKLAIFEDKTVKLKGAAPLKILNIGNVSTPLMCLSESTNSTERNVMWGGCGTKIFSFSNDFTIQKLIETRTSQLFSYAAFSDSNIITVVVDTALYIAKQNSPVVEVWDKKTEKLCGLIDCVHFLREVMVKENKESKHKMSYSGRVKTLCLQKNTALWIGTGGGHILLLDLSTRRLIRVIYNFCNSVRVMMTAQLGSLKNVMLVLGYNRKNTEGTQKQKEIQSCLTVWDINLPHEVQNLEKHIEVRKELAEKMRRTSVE
Description: (§1) Immunoblot analysis: BacMam LRRK2-GFP transduced U-2 OS or SH-SY5Y cells (10^7 cells) were left untreated or treated with 3 µM LRRK2-IN-I for 90 min. For lysate preparation, the cells were washed once with ice-cold PBS and lysed by addition of ice-cold lysis buffer (20 mM Tris-HCl, pH 7.4, 1% NP-40, 5 mM EDTA, 5 mM NaF, 150 mM NaCl, and 1∶100 of protease and phosphatase inhibitor cocktails). The lysate was cleared of debris by centrifugation. Equal amount of total protein was loaded onto each lane for SDS-PAGE (3–8% Tris Acetate). The proteins were transferred onto nitrocellulose membrane using the iBLOT® dry blotting system (Life Technologies) according to manufacturer’s protocol. The membranes were blocked and incubated with a primary antibody against LRRK2 (Cell Signaling Technologies), followed by incubation with alkaline phosphatase-conjugated secondary antibody (WesternBreeze® chromogenic Kit, Life Technologies). The blot was developed by using the chromogenic BCIP/NBT substrate (WesternBreeze® chromogenic Kit, Life Technologies). […] Two days post induction, cells were treated for 90 minutes in the presence of 20 µM of compound or DMSO vehicle control. Cells were rapidly lysed in ice cold lysis buffer 50 mM Tris/HCl, pH 7.5, 1 mM EGTA, 1 mM EDTA, […] 1 mM sodium orthovanadate, 10 mM sodium beta-glycerolphosphate, 50 mM NaF, 5 mM sodium pyrophosphate, 0.27 M sucrose, 1 mM benzamidine and 2 mM phenylmethanesulphonylfluoride (PMSF) and one tablet each complete protease inhibitor and PhosSTOP phosphatase inhibitor (Roche) and was supplemented with 1% (v/v) Triton X-100. GFP-LRRK2 was immunoprecipitated with GFP nanotrap beads (ChromoTek). Immunecomplexes were washed twice with lysis buffer supplemented with 300 mM NaCl and once with Buffer A (50 mM Tris/HCl, pH 7.5, 50 mM NaCl, 0.1 mM EGTA and 0.1% (v/v) 2-mercaptoethanol, and 0.27 M sucrose).

LRRK2 A2016T/G2019S = biological target: T2, LRRK2 A2016T/G2019S (Homo sapiens, UniProt Q5S007, A2016T/G2019S); test: Immunoprecipitation/Western analysis of LRRK2 phosphorylation in T-REx HEK293 cells expressing inhibitor desensitizing mutant; format: cell-based; settings: 20 µM, Figure 6 IRM
T2 construct: expressed in transfected cells
T2 sequence (Q5S007 whole entry A2016T/G2019S): as the sequence (Q5S007 whole entry G2019S) above, with A2016T counted along it
Description: as §1

LRRK2-GFP = test: Fluorescence microscopy of LRRK2-GFP localization in U-2 OS cells; format: cell-based, human; settings: 3 µM 90 min, Figure 1A
Description: U-2 OS cells were transduced with BacMam LRRK2-GFP as described above. The cells were then plated on chambered coverslips (LabTek II/Nunc, Rochester, NY) at 50% confluency and incubated for 48 hours. The growth medium was replaced with phenol-red free DMEM® (Life Technologies, Carlsbad, CA) before live imaging. Cells were imaged under the same conditions for each mutant using an inverted microscope (Nikon Eclipse TE2000-S) equipped with a PlanApo 60X objective and a charge-coupled device camera (Diagnostic Instruments SPOT RT 2.3.0) using SPOT Advanced software.

[1] = Cytotoxicity assay (resazurin-based cell viability); settings: human
LRRK2 wild-type [2] = biological target: T3, LRRK2 wild-type (Homo sapiens, UniProt Q5S007); test: TR-FRET cellular assay for LRRK2 Ser935 phosphorylation, U-2 OS cells, BacMam LRRK2-GFP wild-type; format: cell-based; set-up: This high-throughput assay utilizes cells expressing full-length human LRRK2 with a C-terminal GFP tag (LRRK2-GFP); host or cells: U-2 OS cells transduced with BacMam
T3 sequence (Q5S007 whole entry): as the sequence (Q5S007 whole entry G2019S) above, with S2019G counted along it
Description: (§2) U-2 OS cells are maintained in growth medium (McCoy’s 5A supplemented with 10% dialyzed FBS (dFBS), 10 mM HEPES, 0.1 mM NEAA, 1 mM Sodium Pyruvate, and 100 U/mL Penicillin/100 µg/mL Streptomycin). HEK293T cells are maintained in DMEM with 10% dFBS, 10 mM HEPES, 0.1 mM NEAA and 100 U/mL Penicillin/100 µg/mL Streptomycin. SH-SY5Y cells are maintained in DMEM/F-12 medium supplemented with 10% dFBS and 100 U/mL Penicillin/100 µg/mL Streptomycin. […] GIBCO® human neural stem cells (hNSCs) were propagated as an adherent culture in StemPro® NSC SFM according to the manufacturer’s recommended protocol (Life Technologies). For BacMam transduction of U-2 OS and HEK293T, cells were harvested, mixed with various amounts of BacMam LRRK2-GFP reagent (v/v) and plated onto 6-well plates. […] Cells were assayed in 384-well format (∼20,000 cells/well) 48 hours post-transduction as above.
(§3) Transduced cells in the 384-well assay plate were incubated with indicated inhibitors (5X, 5 µL/well) for 60 to 90 minutes. During this time, 6 X lysis buffer (Life Technologies) was supplemented with 30 nM Tb-labeled anti-LRRK2 pSer935 antibody and both protease and phosphatase inhibitor cocktails (Sigma). The complete 6 X lysis buffer was added to each well (5 µL/well) and the plates were incubated at room temperature in the dark for 2 hours. […] A sigmoidal dose-response equation with varying slope was used to fit the data and generate IC50 values. Z′-factor values were calculated as: Z′-factor = 1 - [(3 × stdevno virus +3 × stdevmaxvirus)/(avgmaxvirus – avgno-virus)]. The IC50 values reported in Table 1 are the averaged numbers from three independent experiments.

LRRK2 wild-type [3] = biological target: T3, LRRK2 wild-type; test: TR-FRET cellular assay for LRRK2 Ser935 phosphorylation, SH-SY5Y cells, BacMam LRRK2-GFP wild-type; format: cell-based; set-up: This high-throughput assay utilizes cells expressing full-length human LRRK2 with a C-terminal GFP tag (LRRK2-GFP); host or cells: SH-SY5Y cells transduced with BacMam
Description: as §2, §3

LRRK2 G2019S = LRRK2 G2019S (Homo sapiens, UniProt Q5S007, G2019S); test: TR-FRET cellular assay for LRRK2 Ser935 phosphorylation, human neural stem cells, BacMam LRRK2-GFP G2019S; format: cell-based; set-up: This high-throughput assay utilizes cells expressing full-length human LRRK2 with a C-terminal GFP tag (LRRK2-GFP); host or cells: U-2 OS, SH-SY5Y, HEK293T cells or human neural stem cells transduced with BacMam; settings: 10% BacMam G2019S, 90 min, Figure 4, read-out: IC50, inhibition of G2019S Ser935 phosphorylation via TR-FRET
Sequence of LRRK2 G2019S (Q5S007 whole entry G2019S): as the sequence (Q5S007 whole entry G2019S) above
Description: as §2
Transduced cells in the 384-well assay plate were incubated with indicated inhibitors (5X, 5 µL/well) for 60 to 90 minutes. During this time, 6 X lysis buffer (Life Technologies) was supplemented with 30 nM Tb-labeled anti-LRRK2 pSer935 antibody and both protease and phosphatase inhibitor cocktails (Sigma). […] Z′-factor values were calculated as: Z′-factor = 1 - [(3 × stdevno virus +3 × stdevmaxvirus)/(avgmaxvirus – avgno-virus)]. […]

[4] = WT, +/- SD, three independent experiments, * = partial inhibition, read-out: IC50, TR-FRET cell-based assay for Ser935 phosphorylation of LRRK2

COc1cc(C(=O)N2CCC(N3CCN(C)CC3)CC2)ccc1Nc1ncc2c(n1)N(C)c1ccccc1C(=O)N2C [LRRK2-IN-1]
effect on phosphorylation of Ser910, Ser935, Ser955 and Ser973 (IP-Western) (GFP-LRRK2 G2019S): inhibited phosphorylation of Ser910, Ser935, Ser955 and Ser973
effect of desensitizing mutation A2016T/G2019S on compound-induced dephosphorylation (IP-Western) (LRRK2 A2016T/G2019S): rescued phosphorylation
LRRK2-GFP cellular localization (LRRK2-GFP): relocalization of the wild-type, G2019S and R1441C to more fibrillar-like structures
IC50 [1]: > 20 µM
IC50 (LRRK2 wild-type [2]; 20% BacMam wild-type, 90 min, Figure 2B, read-out: IC50, inhibition of TR-FRET signal (Ser935 phosphorylation)): 80 nM
IC50 (LRRK2 wild-type [2]; [4]): 90 nM
IC50 (LRRK2 wild-type [3]; 25% BacMam wild-type, 90 min, Figure 3C, read-out: IC50, inhibition of TR-FRET signal (Ser935 phosphorylation)): 170 nM
IC50 (LRRK2 wild-type [3]; [4]): 200 nM
IC50 (LRRK2 G2019S): 30 nM
